One assay deals with T1, human μ-opiate receptor (Homo sapiens, UniProt P35372).
T1 construct: purchased NEN, Zaventem, Belgium RB-HOM; host or cells: CHO-K1 cells (membrane preparation)
Put plainly: μ-opiate receptor binding assay with [3H] naloxone (WGA-SPA beads). The following applies: 1 μmol/l test substance, 1 nmol/l [3H] naloxone, CHO-K1 cell membranes expressing human μ-opiate receptor. An outline of the steps:
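Scintillation proximity readout: [3H]naloxone (1 nmol/l) displacement measured after 90 min, room temperature, on human μ-receptor CHO-K1 membranes in Tris-HCl/azide/BSA buffer; 25 μmol/l naloxone defined non-specific binding. Values are % specific-binding inhibition at 1 μmol/l, or Ki from IC50 (Cheng-Prusoff).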

In a further assay the target is T2, ORL1 receptor (Homo sapiens, UniProt P41146).
T2 construct: expressed in transfected cells; host or cells: CHO (recombinant CHO-ORL1 cells), membranes
T2 sequence (P41146 whole entry): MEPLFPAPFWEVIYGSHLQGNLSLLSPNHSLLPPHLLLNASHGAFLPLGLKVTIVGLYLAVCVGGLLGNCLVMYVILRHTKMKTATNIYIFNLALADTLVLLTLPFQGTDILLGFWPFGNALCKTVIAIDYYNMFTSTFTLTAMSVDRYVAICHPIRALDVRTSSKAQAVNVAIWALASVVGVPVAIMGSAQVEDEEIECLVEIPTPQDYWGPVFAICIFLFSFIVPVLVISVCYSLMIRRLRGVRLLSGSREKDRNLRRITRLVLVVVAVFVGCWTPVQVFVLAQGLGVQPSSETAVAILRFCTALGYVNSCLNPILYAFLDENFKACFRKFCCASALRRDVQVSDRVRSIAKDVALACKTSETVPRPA
Kind of assay: ORL1 receptor binding assay with 3H-nociceptin/orphanin FQ (WGA-SPA beads). The following applies: c=1 μM test substance; 0.5 nM 3H-nociceptin/orphanin FQ; membranes of recombinant CHO-ORL1 cells. In outline:
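Affinity given as nanomolar Ki or as % inhibition at c=1 μM. Membranes of CHO cells expressing recombinant ORL1 (20 μg protein) were incubated one hour at room temperature with 0.5 nM 3H-nociceptin/orphanin FQ in Hepes 50 mM, pH 7.4, plus MgCl2 and EDTA; bound ligand detected by SPA bead scintillation counting.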

T1 sequence (P35372 whole entry): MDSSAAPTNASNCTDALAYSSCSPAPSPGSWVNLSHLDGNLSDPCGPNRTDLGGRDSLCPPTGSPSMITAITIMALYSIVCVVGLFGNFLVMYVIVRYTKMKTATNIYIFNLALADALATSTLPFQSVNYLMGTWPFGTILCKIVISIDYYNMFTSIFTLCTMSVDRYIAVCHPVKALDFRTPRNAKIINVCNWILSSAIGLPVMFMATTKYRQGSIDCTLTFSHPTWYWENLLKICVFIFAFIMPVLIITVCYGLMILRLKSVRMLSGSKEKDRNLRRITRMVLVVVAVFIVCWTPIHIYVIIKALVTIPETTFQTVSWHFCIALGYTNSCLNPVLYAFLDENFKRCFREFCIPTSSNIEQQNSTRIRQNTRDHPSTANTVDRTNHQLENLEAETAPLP

In the case of `CC(C)C(CC(=O)N(C)CCCN1CCC(c2cccs2)(N(C)C)CC1)c1c[nH]c2ccccc12` (stereo not shown) [Example 23, N-(3-(4-(Dimethylamino)-4-(thiophen-2-yl)piperidin-1-yl)propyl)-3-(1H-indol-3-yl)-N,4-dimethylpentanamide], the inhibition at 1 µM at human μ-opiate receptor amounted to 86%; on ORL1 receptor it was 53%.
For the compound `Cc1c(CN(C)CCN2CCC(c3ccccc3)(N(C)C)CC2)c2ccccc2n1C` [Example 79, 1-(2-(((1,2-Dimethyl-1H-indol-3-yl)methyl)(methyl)amino)ethyl)-N,N-dimethyl-4-phenylpiperidin-4-amine], the “% Inhibition (μ) at 1 μM” value at human μ-opiate receptor is 101%. For the same compound, the “% Inhibition (ORL1) at 1 μM” value at ORL1 receptor was 83%.
For the compound `CN(CCN1CCC(c2ccccc2)(N2CCCC2)CC1)C(=O)c1ccc2ccn(C)c2c1` [Example 37, N,1-Dimethyl-N-(2-(4-phenyl-4-(pyrrolidin-1-yl)piperidin-1-yl)ethyl)-1H-indole-6-carboxamide], the inhibition at 1 µM at human μ-opiate receptor worked out at 47%; on ORL1 receptor, 16%.
As to `CC(C)C(C(=O)N1CCC(c2ccccc2)(N(C)C)CC1)N(C)C(=O)Cc1c[nH]c2cc(F)ccc12` (stereo not shown) [Example 82, N-(1-(4-(dimethylamino)-4-phenylpiperidin-1-yl)-3-methyl-1-oxobutan-2-yl)-2-(6-fluoro-1H-indol-3-yl)-N-methylacetamide], the inhibition at 1 µM at human μ-opiate receptor and on ORL1 receptor was 97% throughout.
Consider `CN(C)C1(c2ccccc2)CCN(C(=O)C2CN(Cc3ccc4[nH]ccc4c3)c3ccccc32)CC1` (stereo not shown) [Example 166, (1-((1H-indol-5-yl)methyl)indolin-3-yl)(4-(dimethylamino)-4-phenylpiperidin-1-yl)methanone], for which the inhibition at 1 µM at human μ-opiate receptor stood at 77%; on ORL1 receptor, 40%.
On to `Cc1c(CNCCN2CCC(c3cccs3)(N(C)C)CC2)c2ccccc2n1C` [Example 80, 1-(2-((1,2-Dimethyl-1H-indol-3-yl)methylamino)ethyl)-N,N-dimethyl-4-(thiophen-2-yl)pipendin-4-amine], for which the inhibition at 1 µM at human μ-opiate receptor was found to be 101%; on ORL1 receptor, 97%.
As for `CCCCC1(N(C)C)CCN(CCN(C)C(=O)CCc2cn(C)c3ccccc23)CC1` [Example 49, N-(2-(4-Butyl-4-(dimethylamino)piperidin-1-yl)ethyl)-N-methyl-3-(1-methyl-1H-indol-3-yl)propanamide], the figures for the inhibition at 1 µM on human μ-opiate receptor and at ORL1 receptor were 52% and 17%, respectively.
Consider `CN(C)C1(c2ccccc2)CCN(C(=O)C2CN(C(=O)Cc3c[nH]c4cc(F)ccc34)c3ccccc32)CC1` (stereo not shown) [Example 86, 1-(3-(4-(dimethylamino)-4-phenylpiperidine-1-carbonyl)indolin-1-yl)-2-(6-fluoro-1H-indol-3-yl)ethanone], for which the inhibition at 1 µM was determined as 88% at human μ-opiate receptor and 94% at ORL1 receptor.
Consider `CN(CCCN1CCC(c2cccs2)(N(C)C)CC1)C(=O)Cc1c[nH]c2cc(F)ccc12` [Example 26, N-(3-(4-(Dimethylamino)-4-(thiophen-2-yl)piperidin-1-yl)propyl)-2-(6-fluoro-1H-indol-3-yl)-N-methylacetamide], for which the inhibition at 1 µM on human μ-opiate receptor was 88%; at ORL1 receptor it was 59%.
Consider `CN(CCCN1CCC(c2ccccc2)(N(C)C)CC1)C(=O)c1ccc2ccn(C)c2c1` [Example 39, N-(3-(4-(Dimethylamino)-4-phenylpiperidin-1-yl)propyl)-N,1-dimethyl-1H-indole-6-carboxamide], for which the inhibition at 1 µM at human μ-opiate receptor worked out at 76%; on ORL1 receptor it was 32%.
Turning to `CN(C)C1(c2cccs2)CCN(C(=O)CC(NCc2cccc3cc[nH]c23)c2ccccc2)CC1` (stereo not shown) [Example 173, 3-((1H-indol-7-yl)methylamino)-1-(4-(dimethylamino)-4-(thiophen-2-yl)piperidin-1-yl)-3-phenylpropan-1-one], the results for the inhibition at 1 µM on human μ-opiate receptor and on ORL1 receptor were 96% and 74%, respectively.
For `CN(C)C1(c2cccs2)CCN(C(=O)CC(NC(=O)Cc2c[nH]c3cc(F)ccc23)c2ccccc2)CC1` (stereo not shown) [Example 93, N-(3-(4-(dimethylamino)-4-(thiophen-2-yl)piperidin-1-yl)-3-oxo-1-phenylpropyl)-2-(6-fluoro-1H-indol-3-yl)acetamide], the inhibition at 1 µM was found to be 97% at human μ-opiate receptor and 88% at ORL1 receptor.
Take `CC(C)C(C(=O)N1CCC(c2ccccc2)(N(C)C)CC1)N(C)C(=O)CCc1cn(C)c2ccccc12` (stereo not shown) [Example 132, N-(1-(4-(dimethylamino)-4-phenylpiperidin-1-yl)-3-methyl-1-oxobutan-2-yl)-N-methyl-3-(1-methyl-1H-indol-3-yl)propanamide]: the inhibition at 1 µM was 63% at human μ-opiate receptor and 34% at ORL1 receptor.
The matching figures for `CN(C)C1(c2cccs2)CCN(CCNC(=O)c2cccc3c2ccn3C)CC1` [Example 10, N-(2-(4-(Dimethylamino)-4-(thiophen-2-yl)piperidin-1-yl)ethyl)-1-methyl-1H-indole-4-carboxamide]: 99% and 56%.
On the same counts, the results for `CN(C)C1(c2cccs2)CCN(C(=O)CC(NC(=O)C2CCCc3c2[nH]c2ccc(Cl)cc32)c2ccccc2)CC1` (stereo not shown) [Example 97, 6-chloro-N-(3-(4-(dimethylamino)-4-(thiophen-2-yl)piperidin-1-yl)-3-oxo-1-phenylpropyl)-2,3,4,9-tetrahydro-1H-carbazole-1-carboxamide] are 70% and 77%.
The matching figures for `CN(CCCN1CCC(c2cccs2)(N(C)C)CC1)C(=O)c1ccc2ccn(C)c2c1` [Example 28, N-(3-(4-(Dimethylamino)-4-(thiophen-2-yl)piperidin-1-yl)propyl)-N,1-dimethyl-1H-indole-6-carboxamide]: 88% and 36%.
Turning to `CN(C)C1(c2ccccc2)CCN(C(=O)CCNCc2c[nH]c3ccccc23)CC1` [Example 139, 3-((1H-indol-3-yl)methylamino)-1-(4-(dimethylamino)-4-phenylpiperidin-1-yl)propan-1-one], the inhibition at 1 µM worked out at 90% at human μ-opiate receptor and 74% on ORL1 receptor.
Turning to `CC(CC(=O)N(C)CCCN1CCC(c2ccccc2)(N(C)C)CC1)c1c[nH]c2ccccc12` (stereo not shown) [Example 59, N-(3-(4-(Dimethylamino)-4-phenylpiperidin-1-yl)propyl)-3-(1H-indol-3-yl)-N-methylbutanamide], the inhibition at 1 µM at human μ-opiate receptor worked out at 86%; on ORL1 receptor, 60%.
Consider `CC(CC(=O)N(C)CCCN1CCC(c2cccs2)(N(C)C)CC1)c1c[nH]c2ccccc12` (stereo not shown) [Example 19, N-(3-(4-(Dimethylamino)-4-(thiophen-2-yl)piperidin-1-yl)propyl)-3-(1H-indol-3-yl)-N-methylbutanamide], for which the inhibition at 1 µM on human μ-opiate receptor is 89%; at ORL1 receptor, 59%.
In the case of `CN(CCN1CCC(c2ccccc2)(N(C)C)CC1)C(=O)c1c[nH]c2ccccc12` [Example 12, N-(2-(4-(Dimethylamino)-4-phenylpiperidin-1-yl)ethyl)-N-methyl-1H-indole-3-carboxamide], the inhibition at 1 µM at human μ-opiate receptor came to 84%; at ORL1 receptor it was 67%.
For the compound `CN(Cc1ccc2[nH]ccc2c1)C(C(=O)N1CCC(c2cccs2)(N(C)C)CC1)c1ccccc1` (stereo not shown) [Example 147, 2-(((1H-indol-5-yl)methyl)(methyl)amino)-1-(4-(dimethylamino)-4-(thiophen-2-yl)piperidin-1-yl)-2-phenylethanone], the inhibition at 1 µM at human μ-opiate receptor is 47%; on ORL1 receptor, 27%.
With `COc1ccc2[nH]cc(CNCCN3CCC(c4cccs4)(N(C)C)CC3)c2c1` [Example 188, 1-(2-((5-methoxy-1H-indol-3-yl)methylamino)ethyl)-N,N-dimethyl-4-(thiophen-2-yl)piperidin-4-amine], the inhibition at 1 µM at human μ-opiate receptor was 99%; on ORL1 receptor, 85%.
As for `CN(CCN1CCC(c2ccccc2)(N(C)C)CC1)Cc1c[nH]c2ccc(Cl)cc12` [Example 182, 1-(2-(((5-chloro-1H-indol-3-yl)methyl)(methy)amino)ethyl)-N,N-dimethyl-4-phenylpiperidin-4-amine], the “% Inhibition (μ) at 1 μM” value at human μ-opiate receptor is 101%. Besides, the “% Inhibition (ORL1) at 1 μM” value on ORL1 receptor came out at 95%.
In the case of `CN(C)C1(c2ccccc2)CCN(C(=O)C2CCCN(Cc3cccc4[nH]ccc34)C2)CC1` (stereo not shown) [Example 161, (1-((1H-indol-4-yl)methyl)piperidin-3-yl)(4-(dimethylamino)-4-phenylpiperidin-1-yl)methanone], the values for the inhibition at 1 µM at human μ-opiate receptor and on ORL1 receptor were 66% and 15%, respectively.
On the same counts, the results for `CN(C)C1(c2ccccc2)CCN(C(=O)C2CN(C(=O)c3cccc4c3ccn4C)c3ccccc32)CC1` (stereo not shown) [Example 114, (4-(dimethylamino)-4-phenylpiperidin-1-yl)(1-(1-methyl-1H-indole-4-carbonyl)indolin-3-yl)methanone] are 90% and 56%.
For `CN(C)C1(c2cccs2)CCN(CCNC(=O)c2ccc3ccn(C)c3c2)CC1` [Example 9, N-(2-(4-(Dimethylamino)-4-(thiophen-2-yl)piperidin-1-yl)ethyl)-1-methyl-1H-indole-6-carboxamide], the values for the inhibition at 1 µM at human μ-opiate receptor and on ORL1 receptor were 101% and 77%, respectively.

For the origin of these results see patent US9206156B2, “Substituted indole derivatives” (GRÜNENTHAL GMBH, priority 2008, dated 2015).
